Tested on: orthotopic LM2-4luc breast cancer xenografts
Test: orthotopic LM2-4luc xenografts, unresected: primary tumor and spontaneous metastasis
Assay type: in vivo, human LM2-4luc cells in CB-17 SCID mice
Conditions: for primary tumor growth: VT from 10DPI, SU 7 days from 17DPI, n = 8, volume or bioluminescence, Fig5A–C
Source text: The first experiment involved VT and SU treatments in the presence of an unresected primary tumor (Fig5). At 10 days post-implantation (DPI), when primary tumors reached an average size of ∽175 mm^3, mice were randomized into groups and chronic VT therapy was initiated. At 17DPI, when tumors reached an average size (∽400 mm^3) where tumor debulking is typically required for long-term metastasis experiments, a 7-day anti-angiogenic SU treatment was initiated in lieu of surgical resection.
In vivo experiments were performed in strict accordance with protocols approved by the Sunnybrook Research Institute Animal Care Committee, accredited by the Canadian Council of Animal Care. All surgical, imaging, and euthanasia procedures were performed under inhaled isoflurane anesthesia. Experimental metastasis models involved injections of 10^6 tumor cells, suspended in 200 μl serum-free DMEM, into the mouse tail vein. LM2-4^luc implantations were performed on 6 to 8-week-old female CB-17 SCID mice (Charles River Canada). HT29^luc implantations were performed on 19- to 20-week-old male and 11- to 12-week-old female YFP-SCID mice (bred in-house). SN12^luc implantations were performed on 9-week-old male YFP-SCID mice. Spontaneous metastasis models involved orthotopic implantations of 2 × 10^6 LM2-4^luc cells/50 μl serum-free DMEM in the right inguinal mammary fat pads of 6-week-old female CB-17 SCID mice.
Sunitinib malate (SU), from Pfizer or LC Laboratories, and its vehicle were formulated as described before (Ebos et al, [2009]). SU was administered by oral gavage (PO), once daily, at a dose of 60 mg/kg mouse weight. Vasculotide (VT): VT synthesized at the Sunnybrook Research Institute (Toronto, ON, Canada) was used in experiments described in Fig2(A–D) and Supplementary Fig S5(A and B). VT synthesized by American Peptide (Sunnyvale, CA, USA) was used in experiments described in Fig5. VT synthesized by Bachem UK Ltd was used in experiments described in Figs1, 2(E–H), 3, 4, 6–9, Supplementary Figs S2, and S5(C and D). Lyophilized product was reconstituted in PBS to 500 μg/500 μl stock aliquots and stored at −80°C. As needed, stock aliquots were diluted with PBS to a 250 ng/50 μl working concentration and stored in 0.4–1 ml aliquots at −80°C. VT (at a standard dose of 250 ng/mouse) or its vehicle (PBS) was administered to mice by intraperitoneal (IP) injections every other day.
5. Bioluminescence imaging (BI) of tumor burden
For in vivo BI: Mice were injected intraperitoneally with 150mg/kg luciferin (Promega) 10 minutes prior to and anesthetized with isofluorane just before luminescent pseudocolor imaging (uniform settings: CCD camera locked at -105 °C, exposure=60s, f/1, subject size=1.5cm, bin=8, FOV=23.2cm, full image correction) using the IVIS 200 Imaging System (Caliper/PerkinElmer). Using the Living Image software (v2.50.1, Xenogen), weekly images were analyzed under uniform color range on grayscale photographic overlay. Total fluxes (photons/sec) were quantified within consistent regions of interest and statistically compared ideally at a timepoint before any deaths have occurred.
For ex vivo BI: Mice were sacrificed at 7 mins after luciferin injections, then organs of interest were dissected and individually placed within 24-well plates for imaging at 10 min post-luciferin injection.
6. Immunohistochemical (IHC) analysis of lung metastases
Surgically dissected lungs were fixed in 4% paraformaldehyde (PFA) overnight and stored in 70% ethanol. Three paraffin-embedded cross-sections per lung, 5-μm thick, 60 μ m apart, were subjected to IHC staining using a serum-free protein block (Dako X0909), an anti-human vimentin antibody (clone V9, Invitrogen 18-0052; 1:100 in Dako S3022 diluent), the universal ‘LSAB+, HRP’ detection kit (Dako K0690), the DAB+ chromogen-substrate system (Dako K3467) and hematoxylin counterstain.
Quantification procedure involved visual survey of entire tissue sections and tallying of DAB-stained […]

[1] = 39DPI, SU 1wk with or without VT, Fig5F

Row | Molecule | incidence of lung metastases (ex vivo bioluminescent imaging) [1] | incidence of lymph node metastases (ex vivo bioluminescent imaging) [1] | primary tumor burden by volume (SU 7-day, one-way ANOVA, Fig5B) | primary tumor burden by bioluminescent activity (SU 7-day, one-way ANOVA, Fig5C) | primary tumor growth | incidence of lymph node metastases (ex vivo bioluminescent imaging) (32DPI, vehicle 2/8, Fig5F) | incidence of lung metastases (ex vivo bioluminescent imaging) (32DPI, vehicle 6/8, Fig5F) | mean thickness of the viable peripheral regions of primary tumors (H&E) (22 days of VT treatment, Fig5D) | mean thickness of the CAIX+ hypoxic edge of primary tumors (22 days of VT treatment, Fig5E) | lung metastatic nodule size distribution (human vimentin IHC) (VT monotherapy, P = 0.05–0.09, Fig5G) | anti-metastatic benefit of concurrent VT treatment by regional IHC analysis (VT with SU, Fig5G) | metastatic involvement in the lungs (EVBI) (VT-treated groups vs vehicle or SU monotherapy, Fig5F)
1 | CCN(CC)CCNC(=O)c1c(C)[nH]c(/C=C2\C(=O)Nc3ccc(F)cc32)c1C [sunitinib, reference compound] | 4/8 | 4/8 | significantly lowered primary tumor burden | significantly lowered primary tumor burden | effectively stabilized primary tumor growth |  |  |  |  |  |  | 
2 | CHHHRHSF [Vasculotide, 4-armed maleimide-functionalized polyethylene glycol (PEG) backbone to link together four cysteine-capped T7 peptides, that is, CHHHRHSF] |  |  |  |  | did not alter the growth kinetics of primary tumors | 1/8 | 2/8 | did not alter the mean thickness of the viable peripheral regions | did not alter the mean thickness of the CAIX^+ hypoxic edge | delayed the seeding or progression of lung micrometastases | not detectable by regional IHC analysis | trends of reduced incidences of metastatic involvement in the lungs, but no change in the lymph nodes
